Experimental data as given in PubChem BioAssay AID248 (DTP/NCI, 2004).
Values joined by “and” are separate entries in the source; they are usually repeats but may differ in a detail not shown here. Equal entries are not always repeated. Toxic doses and inconclusive results are not listed. Rule as the data show it: active = T/C of 150% or more; inactive = T/C below 125%.

Tested on: L1210 leukemia ip in BDF1 mice, survival T/C
Experiment: NCI In Vivo Anticancer Drug Screen. Data for tumor model L1210 Leukemia (intraperitoneal) in B6D2F1 (BDF1) mice
Details: endpoint: mean survival time, higher = longer survival
Outline: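 Tumor was transplanted into mice, which were then dosed with test compound or vehicle alone. Survival was recorded for each group, and the treated figure was expressed relative to the control figure.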

[1] = dose: 100.0 mg/kg/injection, schedule: Q01DX009 (ip), vehicle: Klucel (hydroxypropylcellulose) (HPC)
[2] = dose: 100.0 mg/kg/injection, schedule: Q04DX003 (ip), vehicle: Klucel (hydroxypropylcellulose) (HPC)
[3] = dose: 200.0 mg/kg/injection, schedule: Q01DX009 (ip), vehicle: Klucel (hydroxypropylcellulose) (HPC)
[4] = dose: 200.0 mg/kg/injection, schedule: Q04DX003 (ip), vehicle: Klucel (hydroxypropylcellulose) (HPC)
[5] = dose: 400.0 mg/kg/injection, schedule: Q01DX009 (ip), vehicle: Klucel (hydroxypropylcellulose) (HPC)
[6] = dose: 400.0 mg/kg/injection, schedule: Q04DX003 (ip), vehicle: Klucel (hydroxypropylcellulose) (HPC)
[7] = dose: 100.0 mg/kg/injection, schedule: Q04DX003 (ip), vehicle: saline with Tween-80
[8] = dose: 400.0 mg/kg/injection, schedule: Q04DX003 (ip), vehicle: saline with Tween-80
[9] = dose: 50.0 mg/kg/injection, schedule: Q01DX001 (ip), vehicle: carboxymethylcellulose (CMC)
[10] = dose: 100.0 mg/kg/injection, schedule: Q01DX009 (ip), vehicle: saline with Tween-80
[11] = dose: 200.0 mg/kg/injection, schedule: Q01DX009 (ip), vehicle: saline with Tween-80
[12] = dose: 200.0 mg/kg/injection, schedule: Q04DX003 (ip), vehicle: saline with Tween-80
[13] = dose: 400.0 mg/kg/injection, schedule: Q01DX009 (ip), vehicle: saline with Tween-80
[14] = dose: 100.0 mg/kg/injection, schedule: Q01DX001 (ip), vehicle: saline
[15] = dose: 200.0 mg/kg/injection, schedule: Q01DX001 (ip), vehicle: saline
[16] = dose: 400.0 mg/kg/injection, schedule: Q01DX001 (ip), vehicle: saline
[17] = dose: 100.0 mg/kg/injection, schedule: Q04DX003 (ip), vehicle: saline
[18] = dose: 200.0 mg/kg/injection, schedule: Q04DX003 (ip), vehicle: saline
[19] = dose: 400.0 mg/kg/injection, schedule: Q04DX003 (ip), vehicle: saline

Measured: T/C

O=S1(=O)C(C(O)(c2ccccc2)c2ccccc2)CCC1C(O)(c1ccccc1)c1ccccc1 (stereo not given)
inactive: [1] 98 % of control | [2] 102 % of control | [3] 98 % of control | [4] 93 % of control | [5] 93 % of control | [6] 105 % of control

CN(C)C(=S)Oc1ccccn1
inactive: dose: 25.0 mg/kg/injection, schedule: Q04DX003 (ip), vehicle: Klucel (hydroxypropylcellulose) (HPC) 106 % of control | dose: 50.0 mg/kg/injection, schedule: Q04DX003 (ip), vehicle: Klucel (hydroxypropylcellulose) (HPC) 104 % of control | [2] 102 % of control and 105 % of control

Cc1ccc(Cl)cc1N=Cc1ccccc1O
inactive: [7] 94 % of control | [8] 98 % of control

NC(=S)c1ccccc1N
inactive: dose: 15.0 mg/kg/injection, schedule: Q01DX Z (ip), vehicle: methylcellulose (MC) 110 % of control | dose: 30.0 mg/kg/injection, schedule: Q01DX Z (ip), vehicle: methylcellulose (MC) 98 % of control | dose: 60.0 mg/kg/injection, schedule: Q01DX Z (ip), vehicle: methylcellulose (MC) 101 % of control | dose: 120.0 mg/kg/injection, schedule: Q01DX Z (ip), vehicle: methylcellulose (MC) 115 % of control

Oc1ccc(F)c2cccnc12
inactive: [9] 101 % of control

Cc1nsc(N(NC(=O)c2ccccc2)C(=O)c2ccccc2)n1
inactive: dose: 75.0 mg/kg/injection, schedule: Q01DX001 (ip), vehicle: carboxymethylcellulose (CMC) 95 % of control

CC(NC(=O)NCCCl)c1ccco1 (stereo not given)
inactive: dose: 6.25 mg/kg/injection, schedule: Q01DX009 (ip), vehicle: Klucel (hydroxypropylcellulose) (HPC) 104 % of control | dose: 12.5 mg/kg/injection, schedule: Q01DX009 (ip), vehicle: Klucel (hydroxypropylcellulose) (HPC) 98 % of control | dose: 25.0 mg/kg/injection, schedule: Q01DX009 (ip), vehicle: Klucel (hydroxypropylcellulose) (HPC) 109 % of control | dose: 50.0 mg/kg/injection, schedule: Q01DX009 (ip), vehicle: Klucel (hydroxypropylcellulose) (HPC) 114 % of control | [1] 106 % of control | [2] 101 % of control | [4] 93 % of control

CC12CC3CC1C2C3OC=O (stereo not given)
inactive: [9] 90 % of control | dose: 100.0 mg/kg/injection, schedule: Q01DX001 (ip), vehicle: carboxymethylcellulose (CMC) 95 % of control | dose: 200.0 mg/kg/injection, schedule: Q01DX001 (ip), vehicle: carboxymethylcellulose (CMC) 95 % of control | dose: 400.0 mg/kg/injection, schedule: Q01DX001 (ip), vehicle: carboxymethylcellulose (CMC) 101 % of control

Cn1c(=O)n2n(c1=O)C1C=CC2C2C(Br)C(Br)C21 (stereo not given)
inactive: [10] 97 % of control | [7] 102 % of control | [11] 101 % of control | [12] 94 % of control | [13] 103 % of control | [8] 105 % of control

C1CCCC(NNC2CCCCCCC2)CCC1
inactive: [14] 94 % of control

O=C(Oc1ccccc1)Oc1ccccc1
inactive: dose: 100.0 mg/kg/injection, schedule: Q04DX002 (ip), vehicle: Klucel (hydroxypropylcellulose) (HPC) 96 % of control | dose: 200.0 mg/kg/injection, schedule: Q04DX002 (ip), vehicle: Klucel (hydroxypropylcellulose) (HPC) 96 % of control | dose: 400.0 mg/kg/injection, schedule: Q04DX002 (ip), vehicle: Klucel (hydroxypropylcellulose) (HPC) 96 % of control

C/C(=N\NS(C)(=O)=O)C(C)(C)C
inactive: dose: 75.0 mg/kg/injection, schedule: Q01DX001 (ip), vehicle: other 103 % of control | dose: 150.0 mg/kg/injection, schedule: Q01DX001 (ip), vehicle: other 103 % of control | dose: 300.0 mg/kg/injection, schedule: Q01DX001 (ip), vehicle: other 97 % of control

CCOC(=O)NC(CC)NC(=O)OCC
inactive: [14] 101 % of control | [15] 103 % of control | [16] 97 % of control

CC(=O)NCCOc1ccc(N)cc1
inactive: [17] 104 % of control | [18] 98 % of control | [19] 98 % of control

O=[N+]([O-])c1ccc(Cl)c(CNc2ncnc3c2ncn3C2CCCCO2)c1 (stereo not given)
inactive: [7] 102 % of control | [12] 92 % of control | [8] 102 % of control

O=[N+]([O-])c1cccc(S(=O)(=O)NNc2ccc(Br)cc2)c1
inactive: [2] 96 % of control | [4] 93 % of control | [6] 89 % of control

O=C(O)c1ccc(CBr)c(CBr)c1
inactive: dose: 6.25 mg/kg/injection, schedule: Q04DX003 (ip), vehicle: saline with Tween-80 93 % of control | dose: 12.5 mg/kg/injection, schedule: Q04DX003 (ip), vehicle: saline with Tween-80 94 % of control

O=c1[nH]cnc2c1ncn2C1OC(CF)C(O)C1O (stereo not given)
inactive: dose: 100.0 mg/kg/injection, schedule: Q01DX009 (ip), vehicle: saline 101 % of control | dose: 100.0 mg/kg/injection, schedule: Q04DX003 (ip), vehicle: other 112 % of control | dose: 200.0 mg/kg/injection, schedule: Q01DX009 (ip), vehicle: saline 101 % of control | dose: 200.0 mg/kg/injection, schedule: Q04DX003 (ip), vehicle: other 103 % of control | dose: 400.0 mg/kg/injection, schedule: Q01DX009 (ip), vehicle: saline 101 % of control | dose: 400.0 mg/kg/injection, schedule: Q04DX003 (ip), vehicle: other 98 % of control

CNCCc1ccc(O)cc1
inactive: [14] 104 % of control | [15] 102 % of control | [16] 104 % of control

Nc1ccc(Oc2ccc(S(=O)(=O)O)cc2)cc1
inactive: [17] 93 % of control | [18] 94 % of control | [19] 94 % of control

COc1cc(NC(=O)CC(C)=O)cc2c(C)cc(=O)n(C)c12
inactive: [1] 101 % of control | [2] 106 % of control | [3] 98 % of control | [4] 89 % of control | [5] 91 % of control | [6] 94 % of control

ClCCCCCCCCc1ccccc1
inactive: dose: 100.0 mg/kg/injection, schedule: Q01DX009 (ip), vehicle: saline sonified 105 % of control | dose: 100.0 mg/kg/injection, schedule: Q04DX003 (ip), vehicle: saline sonified 100 % of control | dose: 200.0 mg/kg/injection, schedule: Q01DX009 (ip), vehicle: saline sonified 102 % of control | dose: 200.0 mg/kg/injection, schedule: Q04DX003 (ip), vehicle: saline sonified 102 % of control | dose: 400.0 mg/kg/injection, schedule: Q01DX009 (ip), vehicle: saline sonified 107 % of control | dose: 400.0 mg/kg/injection, schedule: Q04DX003 (ip), vehicle: saline sonified 96 % of control

Cc1c(C#N)c2n(c1C)CCCC(=O)N2
inactive: dose: 50.0 mg/kg/injection, schedule: Q01DX009 (ip), vehicle: saline with Tween-80 91 % of control | dose: 50.0 mg/kg/injection, schedule: Q04DX003 (ip), vehicle: saline with Tween-80 101 % of control | [10] 90 % of control | [7] 88 % of control | [11] 91 % of control | [12] 97 % of control | [13] 88 % of control | [8] 92 % of control

COc1cccc(NC(=O)NCc2ccco2)c1
inactive: [1] 106 % of control | [3] 108 % of control | [5] 103 % of control
